Data taken from patent publication US20250074890A1, “CYANOPYRIDINE AND CYANOPYRIMIDINE BCL6 DEGRADERS” (DANA-FARBER CANCER INSTITUTE, INC., priority 2021, published 2025).
Where a name gives a salt, the structure may show the parent alone.

Each compound was assayed against T1, BCL6 (Homo sapiens, UniProt P41182) (assay: HiBiT cellular degradation assay in Su-DHL-4 cells). Details: concentration to reach 50% degradation of endogenous SmBiT-tagged BCL6, 24 hours of compound treatment.
T1 construct: Endogenous BCL6 was tagged with the 11-amino acid SmBiT through CRISPR/Cas9 gene editing; endogenous in cells; host or cells: Su-DHL-4 (CRISPR/Cas9 knock-in, single cell clone)
Format: cell-based
Experimental: DC50 (concentration to reach 50% degradation) values were determined from a cellular degradation assay (HiBiT, Promega™) in Su-DHL-4 cells (Table 1). Endogenous BCL6 was tagged with the 11-amino acid SmBiT through CRISPR/Cas9 gene editing and single cell clone selection. After 24 hours of compound treatment, cells were lysed and incubated with LgBiT protein to reconstitute intact nanoluciferase. Substrate was then added and relative luciferase units were measured. Degradation levels for each treatment were taken as a percentage compared to the control, 100% DMSO (Prism).

| SMILES | DC50 [µM] |
| --- | --- |
| C[C@@H]1CN(c2nc(Nc3ccc4c(c3)n(C[C@H]3COC(=O)N3)c(=O)n4C)c(F)cc2C#N)C[C@H](C)[C@@H]1F [Compound 89, 5-Fluoro-2-((3S,4S,5R)-4-fluoro-3,5-dimethylpiperidin-1-yl)-6-((1-methyl-2-oxo-3-(((S)-2-oxooxazolidin-4-yl)methyl)-2,3-dihydro-1H-benzo[d]imidazol-5-yl)amino)nicotinonitrile] | 0.102 |
| CNC(=O)COc1cc2cc(Nc3ncc(C#N)c(N4C[C@H](CCO)C(F)(F)[C@H](C)C4)n3)ccc2n(C)c1=O [Compound 3, 2-((6-((5-Cyano-4-((3S,5R)-4,4-difluoro-3-(2-hydroxyethyl)-5-methylpiperidin-1-yl)pyrimidin-2-yl)amino)-1-methyl-2-oxo-1,2-dihydroquinolin-3-yl)oxy)-N-methylacetamide] | 0.003 |
| C[C@H](O)Cn1c(=O)n(CCC(C)(C)O)c2cc(Nc3nc(N4C[C@@H](N)C(F)(F)[C@@H](C)C4)c(C#N)cc3F)ccc21 [Compound 90, 2-((3R,5S)-3-Amino-4,4-difluoro-5-methylpiperidin-1-yl)-5-fluoro-6-((3-(3-hydroxy-3-methylbutyl)-1-((S)-2-hydroxypropyl)-2-oxo-2,3-dihydro-1H-benzo[d]imidazol-5-yl)amino)nicotinonitrile] | 0.073 |
| C[C@@H](O)Cn1c(=O)n(CCC(C)(C)O)c2cc(Nc3nc(N4C[C@@H](N)C(F)(F)[C@@H](C)C4)c(C#N)cc3F)ccc21 [Compound 91, 2-((3R,5S)-3-Amino-4,4-difluoro-5-methylpiperidin-1-yl)-5-fluoro-6-((3-(3-hydroxy-3-methylbutyl)-1-((R)-2-hydroxypropyl)-2-oxo-2,3-dihydro-1H-benzo[d]imidazol-5-yl)amino)nicotinonitrile] | 0.118 |
| CNC(=O)COc1cc2cc(Nc3nc(N4C[C@@H](C)C(F)(F)[C@@H](C)C4)c(C#N)cc3Cl)ccc2n(CCN(C)C)c1=O [Compound 11, 2-((6-((3-Chloro-5-cyano-6-((3R,5S)-4,4-difluoro-3,5-dimethylpiperidin-1-yl)pyridin-2-yl)amino)-1-(2-(dimethylamino)ethyl)-2-oxo-1,2-dihydroquinolin-3-yl)oxy)-N-methylacetamide] | 0.002 |
| C[C@H]1CN(c2nc(Nc3ccc4c(c3)n(CCC(C)(C)O)c(=O)n4C)c(F)cc2C#N)C[C@@H](N)C1(F)F [Compound 81, 2-((3R,5S)-3-Amino-4,4-difluoro-5-methylpiperidin-1-yl)-5-fluoro-6-((3-(3-hydroxy-3-methylbutyl)-1-methyl-2-oxo-2,3-dihydro-1H-benzo[d]imidazol-5-yl)amino)nicotinonitrile hydrochloride] | 0.031 |
| CNC(=O)COc1cc2cc(Nc3nc(N4C[C@@H](C)[C@@H](F)[C@@H](C)C4)c(C#N)cc3Cl)ccc2n(C)c1=O [Compound 45, 2-((6-((3-Chloro-5-cyano-6-((3R,4S,5S)-4-fluoro-3,5-dimethylpiperidin-1-yl)pyridin-2-yl)amino)-1-methyl-2-oxo-1,2-dihydroquinolin-3-yl)oxy)-N-methylacetamide] | 0.003 |
| CNC(=O)COc1cc2cc(Nc3nc(N4C[C@@H](C)C(F)(F)[C@@H](C)C4)c(C#N)cc3Cl)ccc2n(CCCO)c1=O [Compound 18, 2-((6-((3-Chloro-5-cyano-6-((3R,5S)-4,4-difluoro-3,5-dimethylpiperidin-1-yl)pyridin-2-yl)amino)-1-(3-hydroxypropyl)-2-oxo-1,2-dihydroquinolin-3-yl)oxy)-N-methylacetamide] | 0.005 |
| CNC(=O)COc1cc2cc(Nc3nc(N4C[C@H](C)C[C@H](N)C4)c(C#N)cc3Cl)ccc2n(C)c1=O [Compound 40, 2-((6-((6-((3S,5R)-3-Amino-5-methylpiperidin-1-yl)-3-chloro-5-cyanopyridin-2-yl)amino)-1-methyl-2-oxo-1,2-dihydroquinolin-3-yl)oxy)-N-methylacetamide] | > 0.4 |
| C[C@@H]1CN(c2nc(Nc3ccc4c(c3)n(CCC(C)(C)O)c(=O)n4C)c(Cl)cc2C#N)C[C@H](N)C1(F)F [Compound 48, 2-((3S,5R)-3-Amino-4,4-difluoro-5-methylpiperidin-1-yl)-5-chloro-6-((3-(3-hydroxy-3-methylbutyl)-1-methyl-2-oxo-2,3-dihydro-1H-benzo[d]imidazol-5-yl)amino)nicotinonitrile] | 0.031 |
| CNCC(O)Cn1c(=O)c(OCC(=O)NC)cc2cc(Nc3nc(N4C[C@@H](C)C(F)[C@@H](C)C4)c(C#N)cc3Cl)ccc21 (stereo partly drawn) [Compound 67, 2-((6-((3-Chloro-5-cyano-6-((3S,4S,5R)-4-fluoro-3,5-dimethylpiperidin-1-yl)pyridin-2-yl)amino)-1-(2-hydroxy-3-(methylamino)propyl)-2-oxo-1,2-dihydroquinolin-3-yl)oxy)-N-methylacetamide] | 0.004 |
| C[C@@H]1CN(c2nc(Nc3ccc4c(c3)n(C[C@@H]3CNC(=O)O3)c(=O)n4C)c(F)cc2C#N)C[C@H](C)[C@@H]1F [Compound 87, 5-Fluoro-2-[(3S,4S,5R)-4-fluoro-3,5-dimethyl-1-piperidyl]-6-[[1-methyl-2-oxo-3-[[(5S)-2-oxooxazolidin-5-yl]methyl]benzimidazol-5-yl]amino]pyridine-3-carbonitrile] | 0.101 |
| C[C@@H]1CN(c2nc(Nc3ccc4c(c3)n(C[C@H]3CNC(=O)O3)c(=O)n4C)c(F)cc2C#N)C[C@H](C)[C@@H]1F [Compound 86, 5-Fluoro-2-((3S,4S,5R)-4-fluoro-3,5-dimethylpiperidin-1-yl)-6-((1-methyl-2-oxo-3-(((R)-2-oxooxazolidin-5-yl)methyl)-2,3-dihydro-1H-benzo[d]imidazol-5-yl)amino)nicotinonitrile] | 0.083 |
| C[C@@H]1CN(c2nc(Nc3ccc4c(c3)n(C[C@H]3CNC(=O)O3)c(=O)n4C)c(F)cc2C#N)C[C@H](N)C1(F)F [Compound 84, 2-((3S,5R)-3-amino-4,4-difluoro-5-methylpiperidin-1-yl)-5-fluoro-6-((1-methyl-2-oxo-3-(((R)-2-oxooxazolidin-5-yl)methyl)-2,3-dihydro-1H-benzo[d]imidazol-5-yl)amino)nicotinonitrile] | > 0.4 |
| CNC(=O)COc1cc2cc(Nc3nc(N4C[C@H](C)C[C@H](C(=O)O)C4)c(C#N)cc3Cl)ccc2n(C)c1=O [Compound 79, (3S,5R)-1-(5-chloro-3-cyano-6-((1-methyl-3-(2-(methylamino)-2-oxoethoxy)-2-oxo-1,2-dihydroquinolin-6-yl)amino)pyridin-2-yl)-5-methylpiperidine-3-carboxylic acid] | 0.012 |
| CNC(=O)COc1cc2cc(Nc3nc(N4C[C@@H](N)C(F)(F)[C@@H](C)C4)c(C#N)cc3Cl)ccc2n(CC2COC2)c1=O (single isomer, unassigned) [Compound 42] | 0.071 |
| CNC(=O)COc1cc2cc(Nc3nc(N4C[C@@H](C)C(F)(F)[C@@H](N)C4)c(C#N)cc3Cl)ccc2n(CC2COC2)c1=O [Compound 41, 2-((6-((6-((3S,5R)-3-Amino-4,4-difluoro-5-methylpiperidin-1-yl)-3-chloro-5-cyanopyridin-2-yl)amino)-1-(oxetan-3-ylmethyl)-2-oxo-1,2-dihydroquinolin-3-yl)oxy)-N-methylacetamide] | 0.01 |
| CNC(=O)COc1cc2cc(Nc3nc(N4C[C@@H](C)[C@@H](F)[C@@H](C)C4)c(C#N)cc3Cl)ccc2n(CCN(C)C)c1=O [Compound 72, 2-((6-((3-Chloro-5-cyano-6-((3S,4S,5R)-4-fluoro-3,5-dimethylpiperidin-1-yl)pyridin-2-yl)amino)-1-(2-(dimethylamino)ethyl)-2-oxo-1,2-dihydroquinolin-3-yl)oxy)-N-methylacetamide] | 0.002 |
| CNC(=O)COc1cc2cc(Nc3nc(N4C[C@@H](C)C(F)(F)[C@@H](N)C4)c(C#N)cc3Cl)ccc2n(C)c1=O [Compound 43, 2-((6-((6-((3S,5R)-3-Amino-4,4-difluoro-5-methylpiperidin-1-yl)-3-chloro-5-cyanopyridin-2-yl)amino)-1-methyl-2-oxo-1,2-dihydroquinolin-3-yl)oxy)-N-methylacetamide] | 0.01 |
| C[C@@H]1CN(c2nc(Nc3ccc4c(c3)n(CCC3(O)CC3)c(=O)n4C)c(Cl)cc2C#N)C[C@H](N)C1(F)F [Compound 59, 2-((3S,5R)-3-Amino-4,4-difluoro-5-methylpiperidin-1-yl)-5-chloro-6-((3-(2-(1-hydroxycyclopropyl)ethyl)-1-methyl-2-oxo-2,3-dihydro-1H-benzo[d]imidazol-5-yl)amino)nicotinonitrile] | 0.048 |
| C[C@H]1CN(c2nc(Nc3ccc4c(c3)n(C[C@H]3COC(=O)N3)c(=O)n4C)c(F)cc2C#N)C[C@@H](N)C1(F)F [Compound 61, 2-((3R,5S)-3-amino-4,4-difluoro-5-methylpiperidin-1-yl)-5-fluoro-6-((1-methyl-2-oxo-3-(((S)-2-oxooxazolidin-4-yl)methyl)-2,3-dihydro-1H-benzo[d]imidazol-5-yl)amino)nicotinonitrile] | > 0.4 |
| CNC(=O)COc1cc2cc(Nc3nc(N4C[C@@H](C)C(F)(F)[C@@H](C)C4)c(C#N)cc3Cl)ccc2n(CC2COC2)c1=O [Compound 7, 2-((6-((3-chloro-5-cyano-6-((3R,5S)-4,4-difluoro-3,5-dimethylpiperidin-1-yl)pyridin-2-yl)amino)-1-(oxetan-3-ylmethyl)-2-oxo-1,2-dihydroquinolin-3-yl)oxy)-N-methylacetamide] | 0.005 |
| C[C@H]1C[C@@H](N)CN(c2nc(Nc3ccc4c(c3)c3c(c(=O)n4C)OCC(F)(F)[C@H](C4CC4)N3)c(Cl)cc2C#N)C1 (single isomer, unassigned) [Compound 24] | 0.03 |
